Assay results published in US20260327211A1, “MODULATORS OF A POTASSIUM CHANNEL AND OF TRPV1 CHANNEL AND USES THEREOF” (Bsense Bio Therapeutics Ltd., priority 2023, published 2026).
One block for each compound: values may come before it.

Columns and labels:
[1] = Plasma protein binding, human; format: in vitro ADME; settings: read-out: PPB fu (human)
Protocol: Incubation: Test compounds or the positive control warfarin were introduced into 10% plasma samples (Sourced from WuXi DMPK labs or from commercial vendors) to a concentration of 2 μM. A portion of 150 μL of the compound-containing plasma sample was added to one chamber of a 96-well equilibrium HTD dialysis plate. An equal volume of dialysis buffer was added to the corresponding chamber. A plasma sample was also taken before the incubation and designated as the T0 sample, serving for recovery calculation. The plate was incubated in a humidified 5% CO2 incubator at 37° C. for 4 hours. Each incubation was set up in triplicate.
Sample extraction and preparation: Following the incubation period, samples of 50 μL were drawn from both the plasma side and the buffer side and each was mixed with an equal volume of blank plasma. All matrix-matched samples were quenched using a stop solution containing an internal standard (IS).
Sample Analysis: The samples were subsequently analyzed by LC-MS/MS. The concentrations of the test compound in plasma and buffer samples were quantified based on the peak area ratio of analyte to the internal standard, with no requirement for a standard curve.

[2] = test system: MIA-OA rats; assay: Dynamic weight bearing in MIA-OA rats; format: in vivo, rat; settings: 100 mg/kg (naproxen 30 mg/kg), 6 hours post-dose
Protocol: Monosodium iodoacetate-induced osteoarthritis (MIA-OA): The animals were anaesthetized using an Isoflurane+O2 mixture. Then 50 μl of MIA at a concentration of 60 mg/mL was injected into the right knee joint using a 30 G needle. On study days 13 and 14 following MIA injection, the animals' dynamic weight bearing and response to von Frey filaments were measured.
Dynamic Weight Bearing (DWB): DWB study was performed using the DWB2 apparatus (Bioseb, Paris, France). The rats were placed in a transparent cage containing a matrix comprising around 2000 high-precision force sensors embedded in its floor where they were allowed to move freely. The force sensors measured the weight distribution on each of the four paws of the animal in grams. The animal was filmed from above using a high-definition camera, and the video feed was analyzed in real-time during the test using tracking software, allowing a precise analysis of the animal's posture and hind paws identification. Out of 5 minutes of animal behavior recording, a segment of 2 minutes was analyzed. Once the analysis was completed, the software provided the weight distribution of each hind paw as the main readout and the ratio between the injured and intact hind paws was then calculated.

[3] = biological target: T1, hTRPV1 (Homo sapiens, UniProt Q8NER1); assay: TRPV1 whole-cell electrophysiology, CHO cells expressing hTRPV1 alone; format: cell-based
T1 construct: CDS of NM_080704.4, inserted into the multiple cloning site of pcDNA3.1(+); host or cells: CHO/hKv7.2/3
Description: Extracellular (Bath) solution: The solution was composed of (in mM): NaCl, 140; KCl, 4; CaCl2, 1.8; MgCl2, 1.2; Glucose, 11; HEPES, 5.5. pH was adjusted to 7.3 with NaOH. Osmolarity was adjusted to 310 mOsm with Sucrose.
Intracellular (Pipette) solution: Pipettes were pulled from borosilicate glass (Warner Instrument Corp, USA) with a resistance of 3-7 MΩ and filled with internal solution composed of (in mM): KCl, 130; MgCl2, 1; K ATP, 5; EGTA, 5; HEPES, 10. pH was adjusted to 7.3 with KOH. Osmolarity was adjusted to 290 mOsm with Sucrose. A programmable valve-linked pressurized perfusion system was used to locally apply compounds nearby the cell recorded, in a consistent flow rate of 2-3 ml/min. Data were sampled at 5 kHz and low pass filtered at 2.4 kHz using MultiClamp 700B amplifier with pCLAMP11 software (Molecular Devices, USA).
[…]. A 3-minute time interval was set between sequential Capsaicin injections to allow its washout and cell recovery. All compounds are injected in the vicinity of the cells using the pressurized perfusion system.
The drug current response, when capsaicin (co-applied with test compound) is injected following >3 minutes of pre-incubation with the test compound, is divided by the averaged control currents, obtained when capsaicin is injection alone, before compound incubation and following its washout, to evaluate the drug/control response.

[4] = In vitro micronucleus; format: cell-based; settings: hamster, cho-k1 cells, read-out: Cytotoxicity (%) Absolute EC50
[5] = test system: CHO-K1 cells; assay: In vitro micronucleus; format: cell-based
[6] = test system: Vasopressin 1-2; assay: Functional screening panel, Vasopressin 1-2; format: biochemical; settings: up to 10 micromolar
Protocol: A broad panel of 78 recombinant targets was tested for pharmacologic activity in vitro through a variety of functional assays (Eurofins DiscoverX, USA), as part of the National Institute of Neurological Disorders and Stroke (NINDS) Preclinical Screening Platform for Pain (PSPP) program. The biological targets for the in vitro profiling have been selected based on avoiding opioid receptor stimulation and targets known to be associated with adverse events or targeted by drugs of abuse. […] For each test, a reference compound was evaluated at the target of interest as a positive control.

[7] = biological target: OAT3 (Homo sapiens, UniProt Q8TCC7); assay: Transporter substrate, OAT3; format: in vitro ADME; settings: role: substrate
Protocol: (§1) Additionally, compound 760 was tested for its capability to act as a transporter substrate for various transporters, and was not found to be a transporter substrate for any of the tested transporters.

[8] = biological target: OCT2 (Homo sapiens, UniProt O15244); assay: Transporter substrate, OCT2; format: in vitro ADME; settings: role: substrate
Protocol: as §1

T1 sequence (Q8NER1 whole entry): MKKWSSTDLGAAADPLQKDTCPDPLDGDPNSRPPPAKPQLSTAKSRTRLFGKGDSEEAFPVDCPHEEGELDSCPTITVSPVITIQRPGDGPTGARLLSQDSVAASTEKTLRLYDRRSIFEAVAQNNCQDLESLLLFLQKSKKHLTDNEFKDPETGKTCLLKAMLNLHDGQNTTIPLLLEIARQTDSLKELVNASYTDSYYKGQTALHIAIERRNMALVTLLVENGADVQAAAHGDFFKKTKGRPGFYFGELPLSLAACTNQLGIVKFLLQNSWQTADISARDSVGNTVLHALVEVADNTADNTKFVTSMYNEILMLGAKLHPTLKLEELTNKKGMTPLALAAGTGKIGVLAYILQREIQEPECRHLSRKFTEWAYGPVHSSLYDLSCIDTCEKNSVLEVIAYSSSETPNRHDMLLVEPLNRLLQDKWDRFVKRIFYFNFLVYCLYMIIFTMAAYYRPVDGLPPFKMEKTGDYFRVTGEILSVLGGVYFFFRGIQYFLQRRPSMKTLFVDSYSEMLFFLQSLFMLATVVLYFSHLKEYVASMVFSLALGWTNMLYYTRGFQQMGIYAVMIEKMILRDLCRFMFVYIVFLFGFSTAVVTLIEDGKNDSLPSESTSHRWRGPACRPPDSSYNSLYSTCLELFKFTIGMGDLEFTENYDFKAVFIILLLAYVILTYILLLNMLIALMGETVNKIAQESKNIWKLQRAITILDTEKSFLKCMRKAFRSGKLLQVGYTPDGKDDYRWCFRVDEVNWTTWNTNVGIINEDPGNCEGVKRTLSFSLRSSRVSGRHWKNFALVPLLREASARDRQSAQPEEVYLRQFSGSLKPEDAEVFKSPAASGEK
Sequence of OCT2 (O15244 whole entry): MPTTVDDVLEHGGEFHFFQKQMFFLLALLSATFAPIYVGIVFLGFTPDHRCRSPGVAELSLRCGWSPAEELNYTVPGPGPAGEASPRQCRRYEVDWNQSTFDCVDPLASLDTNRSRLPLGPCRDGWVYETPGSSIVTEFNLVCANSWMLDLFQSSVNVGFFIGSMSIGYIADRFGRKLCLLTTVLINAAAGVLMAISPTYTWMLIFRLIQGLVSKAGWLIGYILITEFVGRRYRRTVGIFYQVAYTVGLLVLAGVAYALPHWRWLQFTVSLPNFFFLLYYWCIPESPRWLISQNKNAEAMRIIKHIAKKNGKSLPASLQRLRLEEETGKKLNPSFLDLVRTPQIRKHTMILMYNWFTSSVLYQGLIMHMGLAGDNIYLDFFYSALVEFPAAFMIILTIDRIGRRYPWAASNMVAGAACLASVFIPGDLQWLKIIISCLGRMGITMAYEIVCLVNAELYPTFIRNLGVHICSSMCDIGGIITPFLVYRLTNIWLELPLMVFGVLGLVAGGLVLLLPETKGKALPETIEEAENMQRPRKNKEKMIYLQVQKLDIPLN
Sequence of OAT3 (Q8TCC7 whole entry): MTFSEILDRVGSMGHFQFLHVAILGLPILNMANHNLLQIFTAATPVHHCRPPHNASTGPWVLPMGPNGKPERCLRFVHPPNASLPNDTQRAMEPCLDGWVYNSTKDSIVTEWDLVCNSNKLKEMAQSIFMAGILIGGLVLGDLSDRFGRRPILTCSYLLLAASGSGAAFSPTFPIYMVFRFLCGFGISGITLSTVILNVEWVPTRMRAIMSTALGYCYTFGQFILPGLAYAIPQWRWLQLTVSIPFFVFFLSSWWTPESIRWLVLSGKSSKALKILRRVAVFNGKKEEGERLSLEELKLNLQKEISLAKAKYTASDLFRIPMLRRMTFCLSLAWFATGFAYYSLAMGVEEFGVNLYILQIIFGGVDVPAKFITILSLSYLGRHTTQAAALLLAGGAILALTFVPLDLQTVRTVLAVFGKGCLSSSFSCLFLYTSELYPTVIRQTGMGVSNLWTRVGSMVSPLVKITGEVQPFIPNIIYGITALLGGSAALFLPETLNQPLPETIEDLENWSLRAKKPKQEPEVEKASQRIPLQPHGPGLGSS

fraction unbound at 4 h, 2 µM [1]: 0.003
Compound: O=C(Cc1cncc(-n2cc(Cl)c3cc(Cl)cc(Cl)c32)c1)N[C@@H]1COC[C@H]1O [Compound 661]
Reversal of weight bearing changes [2]: 44%

IC50 [3]: 2 µM
TRPV1 inhibition, hTRPV1 alone ([3]; 1.3 μM): partial TRPV1 inhibition
Compound: O=C(Cc1cc(-n2cc(Cl)c3cc(Cl)cc(Cl)c32)ccc1F)NCCO [Compound 627]

Compound: O=C(Cc1nccc(-n2cc(Cl)c3cc(Cl)cc(Cl)c32)n1)NC1COCC1O (centres unmarked) [Compound 760]
CC50 at 3 h ([4]; Plate 2 without S9, 3 hours): > 200 µM
CC50 at 24 h ([4]; Plate 3 without S9, 24 hours): 81.2 µM
Micronucleus formation [5]: lacks significant micronucleus formation
Micronucleus response Absolute MEC ([5]; Plate 1 with S9, 3 hours): >200 µM
CC50 ([5]; Plate 1 with S9, 3 hours, read-out: Cytotoxicity (%) Absolute EC50): > 200 µM
Micronucleus response Absolute MEC ([5]; Plate 2 without S9, 3 hours): >200 µM
Micronucleus response Absolute MEC ([5]; Plate 3 without S9, 24 hours): >200 µM
Effect on Vasopressin 1-2 [6]: no effect
OAT3 substrate [7]: not a transporter substrate
OCT2 substrate [8]: not a transporter substrate
